# Assay results as given in PubChem BioAssay AID179 (DTP/NCI, 2004).
# “And” between values parts separate entries of the source, which are not always exact repeats. Equal entries are not always repeated. The source made the active and inactive calls.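 Rule for the calls: active = compounds giving half or more protection of infected cells from virus-caused growth loss, again on retest; inactive = the rest.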
# Test system: CEM cells HIV-1 protection, formazan growth assay
# Assay: NCI AIDS Antiviral Assay
# Details: for IC50: measured here: growth of uninfected CEM cells
# In short: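 Protection of CEM cells against HIV-1 was scored from cell growth (soluble formazan) across five concentrations, with parallel uninfected cells. Lack of protection may reflect toxicity.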
Compound,EC50 [µM],IC50,outcome
C[C@]12CCC3c4ccc(OC(=O)c5ccccc5)cc4CC[C@H]3C1CC[C@@H]2OC(=O)C12OC1CCC2=O (stereo not given in full),> 200,4.07 µM,
CC1=NC(=Cc2cccc(Cl)c2)C(=O)N1n1c(-c2ccccc2)nc2ccccc2c1=O,> 200,36.3 µM,
O=C(O)c1onc2cc([N+](=O)[O-])ccc12,> 1200,219 µM,
CCOC(=O)CC1(c2cccc3ccccc23)OC(=O)c2ccccc21 (stereo not given),,,inactive
CCOC(=O)C1=C(O)C2C3CC4C2C(O)=C(C(=O)OCC)C2C1C3C42 (stereo not given),> 200,93.3 µM,
COc1ccc(/C=C2/SC(=Nc3ccccc3)N(NC(=O)Cc3ccccc3)C2=O)c(OC)c1,> 75.9,> 75.9 µM,
C=C(C)[C@@H]1CC[C@]2(CNC(=O)CC(C)(C)CC(=O)O)CC[C@]3(C)[C@H](CC[C@@H]4[C@@]5(C)CC[C@H](NC(=O)CC(C)(C)CC(=O)O)C(C)(C)[C@@H]5CC[C@]43C)[C@@H]12,> 200,18.2 µM,
COc1ccc2c3c(c(C(=O)c4ccccc4)oc13)CCC2,,,inactive
O=P(O)(O)CN1CCNCCN(CP(=O)(O)O)CCN(CP(=O)(O)O)CCNCC1,> 100,64.6 µM,
C[C@H]1CCC/C=C/[C@@H]2C[C@H](O)C[C@H]2[C@H](O)/C=C/C(=O)O1,> 891,0.282 µM,
COCN1C(=O)[C@@H]2C[C@@H](O)CN2C(=O)c2ccccc21,> 200,> 200 µM,
CC(=O)NC(CCC(=O)C=[N+]=N)C(=O)O (stereo not given),> 200,29.5 µM,
CC(=O)C1C(=O)C(=O)N(c2ccccc2)C1=O (stereo not given),> 200,> 200 µM,
Nc1nc(N)nc(CC(=O)O)n1,> 200,> 200 µM,
COc1ccc(-c2cc(=O)c3c(OC)c(OC)c(OC)c(OC)c3o2)cc1,> 120,110 µM,
CC(C)Cn1cnc2c(Cl)nc3ccccc3c21,> 200,41.7 µM,
COCCCCCCCCCCCC(=O)OCC1OC(n2cc(C)c(=O)[nH]c2=O)CC1N=[N+]=[N-] (stereo not given),0.0269,34.7 µM,
O=C1CC(C(O)(C(F)(F)F)C(F)(F)Cl)CCC1C(O)(C(F)(F)F)C(F)(F)Cl (stereo not given),,,inactive
CC1(C)OC2OC(COC(=O)c3ccc(C#N)cc3)C3OC(C)(C)OC3C2O1 (stereo not given),,,inactive
CCN(CC)C(=O)Cn1c(C)cc2ccccc21,> 200,> 200 µM,
COCC1OCCN1C (stereo not given),> 200,> 200 µM,
C=C([Si](C)(C)C)[Si](C)(C)C,> 209,> 209 µM,
CC1OC(=O)N2CCC=CC12 (stereo not given),,,inactive

Compound,EC50 [µM],IC50,outcome
Fc1cccc(C2SCc3nc4ccccc4n32)c1 (stereo not given),> 209,20.9 µM,
CC12CC(=O)C3C(C(=O)C1)C32C (stereo not given),> 200,> 200 µM,
O=C(CP(=O)(O)O)c1cccs1,> 1200,> 1200 µM,
O=c1cc(N2CCNCC2)nc2ccccn12,> 200,> 200 µM,
CCc1cccc(CC)c1N=C(NC(=O)c1ccc(Br)cc1)SC,> 200,> 200 µM,
O=C(CC(c1ccccc1)c1c(O)c2ccccc2oc1=O)c1ccccc1 (stereo not given),> 200,83.2 µM,
COc1ccc(Br)c(CCCCC(=O)O)c1,,,inactive
COc1ccc(NC(C)=O)cc1C1CCC(=O)N1 (stereo not given),,,inactive
CCCCCCCCCCC(O)CCCCCCC(=O)O (stereo not given),,,inactive
O=C(CCC(=O)Nc1ccccc1C(F)(F)F)N/N=C1\C(=N\NC(=O)CCC(=O)Nc2ccccc2C(F)(F)F)C(c2ccc3c(c2)OCO3)Oc2ccccc21 (stereo not given),> 23.4,> 23.4 µM,
NC(=O)Cn1c(=O)oc2cc(C(=O)CN3CCOCC3)ccc21,> 200,> 200 µM,
CC(C)(c1ccc(Oc2ccc(C#N)c(C#N)c2)cc1)c1ccc(Oc2ccc(C#N)c(C#N)c2)cc1,> 10.7,> 10.7 µM,
O=Nc1sc(=S)n(N2CCCCC2)c1O,> 200,105 µM,
C=C1CC2OC(=O)C(=C)C2C(O)C2C(=C)CCC12 (stereo not given),,,inactive
c1ccc2c(c1)Cc1cn3c(nc1-2)nc1ccccc13,> 200,129 µM,
COc1ccc2c(c1)C(C)(C)Oc1cc3oc(C(=O)O)cc(=O)c3cc1-2,> 355,> 355 µM,
COC(=O)c1ccc(NCc2cc(OC)ccc2OC)cc1,> 200,24 µM,
O=C(O)C1CC(c2ccc(F)cc2)=Nc2ccc(F)cc2S1 (stereo not given),> 200,> 200 µM,
O=C(CCCN1CCC2(CC1)C(=O)NC(=O)N2c1ccccc1)c1ccc(F)cc1,> 200,> 200 µM,
CN(C)CCNc1cccc2oc3ccc(O)cc3c(=O)c12,> 437,5.75 µM,
COCc1ccc2c(c1)C(O)NC(=O)O2 (stereo not given),> 200,58.9 µM,
c1ccc2sc(-c3c4ccccc4cc4c3ccc3ccccc34)cc2c1,> 200,> 200 µM,
Cc1cc2c(cc1C)C1=C(CCC2)C(=O)C(=O)O1,> 200,110 µM,

Compound,EC50 [µM],IC50,outcome
CCOC(=O)c1c2c(n3ccc(C)cc13)C(=O)C(c1ccc([N+](=O)[O-])cc1)S2 (stereo not given),,,inactive
N#C/C=C/c1cccc(F)c1,> 49,> 49 µM,
COc1ccc(N=Cc2ccc(N(CCC#N)S(=O)(=O)c3ccccc3)cc2)cc1,> 162,> 162 µM,
Cc1ccc(S(=O)(=O)OC(c2ccc(Cl)cc2Cl)C2OC(=O)c3ccccc32)cc1 (stereo not given),> 40.7,> 40.7 µM,
CCOC(=O)Oc1cc2c(c(OC)c1OC)-c1ccc(OC)c(=O)cc1C(NC(C)=O)CC2 (stereo not given),> 2,0.00525 µM,
O=C(O)CCCc1ccc2c(c1)CC1(C2)Cc2ccc(CCCC(=O)O)cc2C1,> 200,141 µM,
CCC1(C)C=Cc2c(cc(OC)c3c(=O)c4ccccc4n(C)c23)O1 (stereo not given),> 200,24.5 µM,
COc1c(O)c2c(=O)cc(OC)c3c4c(OC)cc(=O)c5c(O)c(OC)c(C[C@H](C)O)c(c(c1CC(C)O)c23)c54 (stereo not given in full),,,inactive
CSC1=Nc2ccccc2-c2nc(-c3ccccc3)cc(-c3ccccc3)c2C1,> 200,> 200 µM,
CC(C)(C)c1cc(C(c2ccccc2)c2ccccc2)cc(C(C)(C)C)c1O,> 60.3,33.1 µM,
CCOC(=O)C(=CNC(=S)Nc1ccccc1)C(=O)OCC,> 200,> 200 µM,
CC(=O)NC(Cc1ccccc1)C(=S)N1CCCC1 (stereo not given),> 912,776 µM,
CCn1nc2c3c(ncn3C(C)(C)O2)c1=O,> 200,> 200 µM,
CN(C)CC1CCCc2ccccc2C1=O (stereo not given),,,inactive
Cc1ccc2c(c1)sc1nnc(S(C)(=O)=O)n12,> 200,11.2 µM,
COc1ccc(C2OCC3OC(n4cc(C)c(=O)[nH]c4=O)C[C@H]3N2OC(C)=O)cc1 (stereo not given in full),,,inactive
C[N+](C)(C)C1(C(=O)[O-])CC1,> 200,> 200 µM,
CC(=O)OCC1OC(Nc2ccc3nc(C)n(-c4cccc(C)c4)c(=O)c3c2)C(OC(C)=O)C(OC(C)=O)C1OC(C)=O (stereo not given),> 126,> 126 µM,
Cc1c(CO)[n+](=O)c2ccccc2n1[O-],> 200,> 200 µM,
NC1=NCC(c2ccc(Cl)cc2)O1 (stereo not given),> 200,50.1 µM,
CN(C)C=C1C(=O)NC(=O)NC1=O,> 200,> 200 µM,
CC(=O)OC(/C=C1/C=CC(=O)O1)COC(=O)c1ccccc1 (stereo not given),> 309,5.89 µM,
COc1ccccc1/C=C(/C(C)=O)C(=O)c1ccccc1,> 25.7,> 25.7 µM,

Compound,EC50 [µM],IC50,outcome
CCCC(=O)OC1C(C2COC(C)(C)O2)OC2OC(C)(C)OC21 (stereo not given),,,inactive
Nc1cccc2c1C(=O)c1cccc(NC(=O)c3ccc4c5c(nsc35)-c3ccccc3C4=O)c1C2=O,> 15.5,> 15.5 µM,
Cc1ccc(-c2cc(=O)c3cc(C)c(C)c(C(=O)O)c3o2)cc1C,,,inactive
NC(CCSCCF)C(=O)O (stereo not given),> 692,102 µM,
Cc1ccc(-c2nc3ccccc3c(=O)n2NC2OC(CO)C(O)C(O)C2O)cc1 (stereo not given),,,inactive
COC(=O)c1c(-c2ccccc2)c(-c2ccccc2)[nH]c(=O)c1C#N,> 200,> 200 µM,
c1ccc(-c2c3c(nc4c2CC[C@H]4NC2=NCCN2)[C@@H](NC2=NCCN2)CC3)cc1,> 200,> 200 µM,
COc1ccc(S(=O)(=O)N[C@@H](C(=O)O)c2ccccc2)cc1,,,inactive
COc1ccc(/C=C/C(=O)C(C)(C)C)cc1OC,> 200,39.8 µM,
CC1=C(C(=O)Nc2ccccc2C)C(c2ccc(N(C)C)cc2)C(C(=O)Nc2ccccc2C)=C(C)N1,> 14.5,> 14.5 µM,
CCOC(=O)C1=CCC2c3[nH]c4ccccc4c3CCN2C1=O (stereo not given),> 16.2,9.12 µM,
COC(=O)C(CC1=C(O)Nc2ccccc2N1)/C(=N/NC(N)=O)C(=O)Nc1ccccc1C (stereo not given),,,inactive
CCOC(=O)c1nc2ccc(C(F)(F)F)cc2nc1Nc1cc(OC)c(OC)c(OC)c1,> 200,> 200 µM,
CC(=O)Nc1ccc(C(=O)NN2C(=O)C(Cl)C2c2cc(Br)ccc2O)cc1 (stereo not given),> 200,4.17 µM,
O[C@@H]1CCN(Cc2ccccc2)C[C@@H]1CNC12CC3CC(CC(C3)C1)C2,> 72.4,> 72.4 µM,
O=C(O)c1ccc(CSc2ccc(Cl)cc2)cc1,> 35.5,> 35.5 µM,
CC(C)(C)c1cc(C2NC(=O)NC2=O)cc(C(C)(C)C)c1O (stereo not given),> 20,> 20 µM,
c1c2c(cc3c1OCO3)C(c1onc3cc4c(cc13)OCO4)=NCC2,,,inactive
CN1CCN(CCCN2c3ccccc3Sc3ccc(C(F)(F)F)cc32)CC1,> 200,9.55 µM and 4.37 µM,
CO/C=C/c1ccc2c(c1)OCO2,,,inactive
COc1cc(-c2cc(-c3ccccc3)nc(-c3c(OC)ccc4c(C)cc(=O)oc34)c2)cc(OC)c1OC,> 200,> 200 µM,
